# Measurements as given in patent EP0367895A1, “Pyrimidinyl-substituted hydroxyacids, lactones and esters and pharmaceutical compositions containing them” (SANDOZ AG, priority 1988, dated 1990).
# Tests used:
# [1] = system: 3β-hydroxysterol synthesis; test: Test B: in vivo cholesterol biosynthesis inhibition test (as described in EP 114 027); conditions: dose calculated to produce a 50% inhibition of 3β-hydroxysterol synthesis, test doses between 0.01 mg/kg and 10 mg/kg; for ED50: read-out: ED₅₀
# Protocol: Test B. In vivo cholesterol biosynthesis inhibition test: as described in EP 114 027:
# ED₅₀ is the dose of the test substance calculated to produce a 50% inhibition of 3β-hydroxysterol synthesis. The studies are run to test doses of between 0.01 mg/kg and 10 mg/kg.
# [2] = target: T1, 3-hydroxy-3-methylglutaryl coenzyme A (HMG-CoA) reductase (Rattus norvegicus, UniProt P51639); test: Test A: in vitro microsomal assay of HMG-CoA reductase inhibition (as described in EP 114 027); assay type: biochemical; conditions: concentration calculated to produce a 50% inhibition of HMG-CoA reductase activity; tests run between 0.05 µM and 1000 µM; read-out: IC₅₀
# T1 construct: In vitro microsomal assay of; from tissue; host or cells: Microsomes; it is liver according to own knowledge of EP 114 027
# T1 sequence (P51639 1-887): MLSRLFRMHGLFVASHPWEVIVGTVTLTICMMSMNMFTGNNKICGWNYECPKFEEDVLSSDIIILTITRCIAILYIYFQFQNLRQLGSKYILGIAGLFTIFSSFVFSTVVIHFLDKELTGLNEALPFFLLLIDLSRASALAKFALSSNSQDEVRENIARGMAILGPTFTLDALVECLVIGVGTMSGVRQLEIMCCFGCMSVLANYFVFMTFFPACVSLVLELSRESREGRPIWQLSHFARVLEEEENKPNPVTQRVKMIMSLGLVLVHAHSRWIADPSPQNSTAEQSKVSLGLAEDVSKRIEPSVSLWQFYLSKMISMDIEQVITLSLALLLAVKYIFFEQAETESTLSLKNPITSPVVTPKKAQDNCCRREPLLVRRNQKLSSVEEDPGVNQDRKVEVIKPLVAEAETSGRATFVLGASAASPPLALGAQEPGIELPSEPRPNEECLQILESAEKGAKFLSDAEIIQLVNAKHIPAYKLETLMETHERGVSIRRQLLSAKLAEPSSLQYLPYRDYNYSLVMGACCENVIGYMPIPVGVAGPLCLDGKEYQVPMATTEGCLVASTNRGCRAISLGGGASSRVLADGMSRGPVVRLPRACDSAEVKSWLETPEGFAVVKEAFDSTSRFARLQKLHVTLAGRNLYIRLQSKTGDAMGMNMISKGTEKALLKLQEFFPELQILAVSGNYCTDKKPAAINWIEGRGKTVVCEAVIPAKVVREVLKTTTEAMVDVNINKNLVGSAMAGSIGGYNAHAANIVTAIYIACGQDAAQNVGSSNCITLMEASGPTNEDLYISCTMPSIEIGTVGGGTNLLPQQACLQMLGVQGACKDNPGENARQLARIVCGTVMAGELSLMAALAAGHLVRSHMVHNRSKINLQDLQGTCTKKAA
# Protocol: Test A. In vitro microsomal assay of 3-hydroxy-3-methylglutaryl coenzyme A (HMG-CoA) reductase inhibition: as described in EP 114 027:
# IC₅₀ is the concentration of the test substance in the assay system calculated to produce a 50% inhibition of HMG-CoA reductase activity. The tests are run at concentrations of test substance between 0.05 µM and 1000 µM.
Compound,ED50 [1],IC50 [2],ED₅₀ [1]
"CC(C)c1nc(N(C)C)nc(-c2ccc(F)cc2)c1/C=C/[C@@H](O)C[C@@H](O)CC(=O)[O-].[Na+] [Example 1b), sodium (3R,5S)-[E]-7-[4-(4-fluoro-phenyl)-6-(1-methylethyl)-2-(dimethylamino)pyrimidin-5-yl]-3,5-dihydroxy-6-heptenoate]",0.028 mg/kg,0.026 µM,
CC(C)c1nc(N(C)C)nc(-c2ccncc2)c1/C=C/[C@@H](O)C[C@@H](O)CC(=O)O [Example 11d],0.04 mg/kg,0.039 µM,
Mevinolin [reference compound],,,0.41 mg/kg
